ChEMBL document CHEMBL1201862, “PubChem BioAssay data set” (2004)
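Cultured in 96-well plates, cells were exposed to test compound for 48 hours across five concentrations. GI50 = concentration required for 50% inhibition of growth.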 Activity calls are given as the source filed them. Cut-off read from the data, not from the text of the source: active = GI50 up to about 1.1 µM and inactive = higher.

How the values were obtained:
Test in all cases: NCI tumour cell line growth inhibition, 48 h
[1] = test system: SF-539
[2] = test system: A549
[3] = test system: KM12
[4] = test system: U-251
[5] = test system: SW-620
[6] = test system: Malme-3M
[7] = test system: ACHN
[8] = test system: OVCAR-5
[9] = test system: HOP-92
[10] = test system: COLO 205
[11] = test system: 786-0
[12] = test system: CCRF-CEM
[13] = test system: TK-10
[14] = test system: SK-OV-3
[15] = test system: HOP-62
[16] = test system: SK-MEL-5
[17] = test system: NCI/ADR-RES
[18] = test system: M14
[19] = test system: UACC-62

Measured: GI50

Cc1cccc2[n+]1[C@H]1[C@H]([C@@H]3O[C@H]1c1ccccc13)[S+]([O-])N2 (some centres not stated)
inactive: [1] 77.6 µM | [2] 63.2 µM | [3] 42.4 µM | [4] 43.8 µM | [5] > 100 µM | [6] 28.6 µM | [7] 57.7 µM | [8] 80.7 µM | [9] 11.9 µM | [10] 61.1 µM | [11] > 100 µM | [12] 34.8 µM | [13] 90.4 µM | [14] > 100 µM | [15] 48.1 µM

O=C(O)Cc1c[nH]c2ccc(F)cc12
inactive: [1] > 100 µM | [2] > 100 µM | [3] > 100 µM | [4] > 100 µM | [5] > 100 µM | [16] > 100 µM | [7] > 100 µM | [8] > 100 µM | [9] > 100 µM | [10] > 100 µM | [11] > 100 µM | [12] > 100 µM | [17] > 100 µM | [13] > 100 µM | [18] > 100 µM | [14] > 100 µM | [19] > 100 µM | [15] > 100 µM

Cc1ccc(C)c(N2C(=O)C(=O)C(c3nc4ccccc4s3)C(=O)C2=O)c1
inactive: [1] > 100 µM | [2] > 100 µM | [3] > 100 µM | [4] 83.8 µM | [5] > 100 µM | [6] > 100 µM | [16] > 100 µM | [7] > 100 µM | [8] 71.8 µM | [9] > 100 µM | [10] > 100 µM | [11] > 100 µM | [12] > 100 µM | [13] > 100 µM | [18] > 100 µM | [14] > 100 µM | [19] > 100 µM | [15] > 100 µM

COc1cc(C2C(C(=O)Nc3ccc([N+](=O)[O-])cc3)=C(C)NC(C)=C2C(=O)Nc2ccc([N+](=O)[O-])cc2)ccc1O
inactive: [1] 20.9 µM | [2] 37.6 µM | [3] 18.7 µM | [4] 16.8 µM | [5] 21.6 µM | [6] 20.8 µM | [16] 31.8 µM | [7] 24.3 µM | [8] 35.6 µM | [9] 16.4 µM | [10] 16.4 µM | [11] 29.1 µM | [12] 30.3 µM | [13] 18.2 µM | [18] 23.9 µM | [14] 27.9 µM | [19] 16.7 µM | [15] 18.4 µM

Cn1cc(C[C@@H](N)C(=O)O)c2ccccc21 [INDOXIMOD]
inactive: [1] > 100 µM | [2] > 100 µM | [3] > 100 µM | [4] > 100 µM | [5] > 100 µM | [6] > 100 µM | [7] > 100 µM | [8] > 100 µM | [10] > 100 µM | [11] > 100 µM | [12] > 100 µM | [17] > 100 µM | [13] > 100 µM | [18] > 100 µM | [14] > 100 µM | [19] > 100 µM | [15] > 100 µM

CC(Oc1ccc2c(=O)cc(-c3ccccc3)oc2c1)C(=O)O (configuration not stated)
inactive: [1] > 100 µM | [2] > 100 µM | [3] > 100 µM | [4] > 100 µM | [5] > 100 µM | [6] > 100 µM | [16] > 100 µM | [7] > 100 µM | [9] > 100 µM | [10] > 100 µM | [11] > 100 µM | [12] > 100 µM | [13] > 100 µM | [18] > 100 µM | [14] > 100 µM | [19] > 100 µM | [15] > 100 µM

O=C(N/N=C(/c1nc2ccc(Cl)cc2[nH]c1=O)C(O)c1ccc(Cl)cc1Cl)c1ccncc1 (configuration not stated)
inactive: [1] > 100 µM | [2] > 100 µM | [3] > 100 µM | [4] > 100 µM | [5] > 100 µM | [6] > 100 µM | [16] > 100 µM | [7] > 100 µM | [8] > 100 µM | [9] > 100 µM | [10] > 100 µM | [11] > 100 µM | [12] > 100 µM | [13] > 100 µM | [18] > 100 µM | [14] > 100 µM | [19] > 100 µM | [15] > 100 µM

N#C/C(=C\c1cc2ccccc2c2ccccc12)c1ccccc1
inactive: [1] 6.15 µM | [2] 7.46 µM | [3] 5.98 µM | [4] 5.78 µM | [5] 4.65 µM | [6] 4.86 µM | [16] 5.38 µM | [7] 14.5 µM | [8] 45.4 µM | [9] > 37.6 µM | [10] 3.43 µM | [11] 5.43 µM | [12] 3.59 µM | [13] > 29.7 µM | [18] 6.05 µM | [14] 6.73 µM | [19] 3.75 µM | [15] 2.49 µM

NC(=S)N/N=C(\C(=O)Nc1cccc([N+](=O)[O-])c1)c1nc2ccc([N+](=O)[O-])cc2nc1O
inactive: [1] 63.1 µM | [2] 91.2 µM | [3] 40.6 µM | [4] > 100 µM | [5] > 100 µM | [6] > 100 µM | [16] 30.9 µM | [7] 21.4 µM | [8] > 100 µM | [9] > 100 µM | [10] > 100 µM | [11] > 100 µM | [12] 34.8 µM | [13] > 100 µM | [18] 88.9 µM | [14] > 100 µM | [19] 51.4 µM | [15] 56.8 µM

COc1ccc(NC(=O)COC(=O)c2cccc3c(=O)c4ccccc4[nH]c23)cc1
inactive: [1] 18.1 µM | [2] 20.3 µM | [3] 16.9 µM | [4] 19.5 µM | [5] 22.2 µM | [6] 23.4 µM | [16] 15.3 µM | [7] 21.1 µM | [9] 25.1 µM | [10] 17.8 µM | [11] 19.1 µM | [12] 13.8 µM | [13] 15.8 µM | [18] 29.6 µM | [14] 30.2 µM | [19] 17.7 µM | [15] 23.8 µM

Cc1ccc(C)c(NC(=O)CCc2nnc(S)[nH]2)c1
inactive: [1] > 100 µM | [2] > 100 µM | [3] > 100 µM | [4] > 100 µM | [5] 17.4 µM | [6] > 100 µM | [16] > 100 µM | [7] > 100 µM | [8] > 100 µM | [9] > 100 µM | [10] > 100 µM | [11] > 100 µM | [12] > 100 µM | [13] > 100 µM | [18] > 100 µM | [14] > 100 µM | [19] > 100 µM | [15] > 100 µM

S=c1oc(CCCCCCCCc2nn(CNc3ccc(Cl)cc3)c(=S)o2)nn1CNc1ccc(Cl)cc1
inactive: [2] > 100 µM | [3] 35.8 µM | [4] > 100 µM | [5] > 100 µM | [6] > 100 µM | [16] 3.27 µM | [7] 72.3 µM | [8] 60.5 µM | [9] > 100 µM | [10] 7.38 µM | [11] > 100 µM | [17] > 100 µM | [13] > 100 µM | [18] 12 µM | [14] > 100 µM | [19] 3.88 µM | [15] 7.52 µM

Brc1ccc(/C=N/C23CC4CC(CC(C4)C2)C3)cc1
inactive: [1] > 100 µM | [2] > 100 µM | [3] > 100 µM | [4] > 100 µM | [5] > 100 µM | [6] > 100 µM | [16] > 100 µM | [7] > 100 µM | [8] > 100 µM | [9] > 100 µM | [10] > 100 µM | [11] > 100 µM | [12] > 100 µM | [13] > 100 µM | [18] > 100 µM | [14] > 100 µM | [19] > 100 µM | [15] > 100 µM

COc1cc2c(cc1OC)C1c3ccccc3CCN1CCC2.[O-][Cl+3]([O-])([O-])O (configuration not stated)
inactive: [1] > 100 µM | [2] > 100 µM | [3] > 100 µM | [4] > 100 µM | [5] > 100 µM | [6] > 100 µM | [16] > 100 µM | [7] > 100 µM | [8] > 100 µM | [10] > 100 µM | [11] > 100 µM | [12] > 100 µM | [17] > 100 µM | [13] > 100 µM | [18] > 100 µM | [14] > 100 µM | [19] > 100 µM | [15] > 100 µM

CC(=O)C1=C(C)Cn2c(=O)c3ccccc3c(=O)n2C1
inactive: [1] > 100 µM | [2] > 100 µM | [3] > 100 µM | [4] > 100 µM | [5] > 100 µM | [6] > 100 µM | [16] > 100 µM | [7] > 100 µM | [8] > 100 µM | [9] > 100 µM | [10] > 100 µM | [11] > 100 µM | [12] > 100 µM | [13] > 100 µM | [18] > 100 µM | [14] > 100 µM | [15] > 100 µM
